The supplement of paper PMC11208160

Experiment: recombinant barcode read abundance after kanamycin selection (control-corrected) (log10(CPM+1)); higher = more efficient recombination; sequences stand for … in AGTGCAGAGAAAATCGGCCAGTTTTCTCTGCCTGCAGTCCGCATGCCGT…AGATTTATGCAGCGGACTGCCTTTCTCCCAAAGTGATAAACCGGACAGTATCATGGACCGGTTTTCCCGGTAATCCGTATTTGCAAGGTTGGTTTCACT; site = the 11-nt target
Description: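 Pooled E. coli target-specificity screen for the IS621 bridge recombinase. Each library plasmid pairs an 11-nt target (CT core) with a bridge RNA whose target-binding loop (9-nt LTG + 4-nt RTG) is reprogrammed; the rest of the 177-nt WT IS621 bridge RNA scaffold is fixed. The plasmid is co-electroporated with a WT donor plasmid; recombinase is induced with 0.1 mM IPTG and recombinants are selected on kanamycin. Recombinant barcodes are sequenced, converted to CPM, averaged over two biological replicates and corrected by the unselected control CPM. Molecule = full bridge RNA written as DNA: LTG = specificity nt 1-9, RTG = reverse complement of specificity nt 8-11, in the WT scaffold.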
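Also: IS621 recombinase and bridge RNA in Escherichia coli cells.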

Row | Sequence | recombinant barcode read abundance (log10)
1 | ACGACTCCTTGGGTTCTAACCTGTTGCCT (site ACGACTACTAG) | 0.467
2 | ACGACTCCTTGGGTTCTAACCTGTTGCCT (site ACGACTCCTAG) | 0.618
3 | ACGACTCCTTGGGTTCTAACCTGTTGCCT (site ACGACTGCTAG) | 0.117
4 | ACGACTCCTTGGGTTCTAACCTGTTGCCT (site ACGACTTCTAG) | 0.0781
5 | ACGAGTCCTTGGGTTCTAACCTGTTGCCT (site ACGAGTCCTAC) | 0.112
6 | ACGAGTCCTTGGGTTCTAACCTGTTGCCT (site ACGAGTCCTAG) | 1.36
7 | ACGCACTCTTGGGTTCTAACCTGTTGCCT (site ACGCAATCTAG) | 0.02
8 | ACGCACTCTTGGGTTCTAACCTGTTGCCT (site ACGCACTCTAG) | 0.131
9 | ACGCACTCTTGGGTTCTAACCTGTTGCCT (site ACGCAGTCTAG) | 0.109
10 | ACGCACTCTTGGGTTCTAACCTGTTGCCT (site ACGCATTCTAG) | 0.394
11 | ACGCATACTTGGGTTCTAACCTGTTGCCT (site ACACATACTAG) | 0.196
12 | ACGCATACTTGGGTTCTAACCTGTTGCCT (site ACGCATACTAG) | 0.0647
13 | ACGCATCCTTGGGTTCTAACCTGTTGCCT (site AAGCATCCTAG) | 0.0107
14 | ACGCATCCTTGGGTTCTAACCTGTTGCCT (site ACGCATCCTAG) | 0.0284
15 | ACGCATCCTTGGGTTCTAACCTGTTGCCT (site AGGCATCCTAG) | 0.0797
16 | ACGCATCCTTGGGTTCTAACCTGTTGCCT (site ATGCATCCTAG) | 0.11
17 | ACGCCCTCTTGGGTTCTAACCTGTTGCCT (site ACGCCCTCTAG) | 0.0283
18 | ACGCCCTCTTGGGTTCTAACCTGTTGCCT (site GCGCCCTCTAG) | 0.302
19 | ACGCCTCCTTGGGTTCTAACCTGTTGCCA (site ACCCCTCCTTG) | 0.0961
20 | ACGCCTCCTTGGGTTCTAACCTGTTGCCA (site ACGCCTCCTTG) | 0.371
21 | ACGCGAGCTTGGGTTCTAACCTGTTGCAG (site ACGCGAGCTCA) | 0.188

Row | Sequence | recombinant barcode read abundance (log10)
22 | ACGCGAGCTTGGGTTCTAACCTGTTGCAG (site ACGCGAGCTCC) | 0.318
23 | ACGCGAGCTTGGGTTCTAACCTGTTGCAG (site ACGCGAGCTCG) | 0.192
24 | ACGCGAGCTTGGGTTCTAACCTGTTGCAG (site ACGCGAGCTCT) | 0.142
25 | ACGCGAGCTTGGGTTCTAACCTGTTGCGG (site ACGCGAGCTCA) | 0.066
26 | ACGCGAGCTTGGGTTCTAACCTGTTGCGG (site ACGCGAGCTCC) | 0.954
27 | ACGCGAGCTTGGGTTCTAACCTGTTGCGG (site ACGCGAGCTCG) | 0.316
28 | ACGCGAGCTTGGGTTCTAACCTGTTGCGG (site ACGCGAGCTCT) | 0.423
29 | ACGCGGACTTGGGTTCTAACCTGTTGCCT (site ACGCCGACTAG) | 0
30 | ACGCGGACTTGGGTTCTAACCTGTTGCCT (site ACGCGGACTAG) | 1.21
31 | ACGCGTTCTTGGGTTCTAACCTGTTGCAT (site ACGCGTTCTAT) | 0.0272
32 | ACGCGTTCTTGGGTTCTAACCTGTTGCAT (site CTAGACCCTCC) | 0.271
33 | ACGGATCCTTGGGTTCTAACCTGTTGCAT (site ACGGATCCTAT) | 2.51
34 | ACGGATCCTTGGGTTCTAACCTGTTGCAT (site GTCCTATCTTG) | 0.0315
35 | ACGGCCTCTTGGGTTCTAACCTGTTGCTT (site ACGGCATCTAG) | 0.276
36 | ACGGCCTCTTGGGTTCTAACCTGTTGCTT (site ACGGCCTCTAA) | 2.63
37 | ACGGCGCCTTGGGTTCTAACCTGTTGCCT (site AAGGCGCCTAG) | 0.0538
38 | ACGGCGCCTTGGGTTCTAACCTGTTGCCT (site ACGGCGCCTAG) | 1.12
39 | ACGGCGCCTTGGGTTCTAACCTGTTGCCT (site AGGGCGCCTAG) | 0.101
40 | ACGGCGCCTTGGGTTCTAACCTGTTGCCT (site ATGGCGCCTAG) | 0.182
41 | ACGGGCTCTTGGGTTCTAACCTGTTGCTC (site ACGGGCTCTGA) | 1.53
42 | ACGGGCTCTTGGGTTCTAACCTGTTGCTC (site CGACTTACTAT) | 0.164

Row | Sequence | recombinant barcode read abundance (log10)
43 | ACGGGGTCTTGGGTTCTAACCTGTTGCCT (site ACGGGGTCTAG) | 2.64
44 | ACGGGGTCTTGGGTTCTAACCTGTTGCCT (site CCGGGGTCTAG) | 0.637
45 | ACGGGGTCTTGGGTTCTAACCTGTTGCCT (site GCGGGGTCTAG) | 0.123
46 | ACGGGGTCTTGGGTTCTAACCTGTTGCCT (site TCGGGGTCTAG) | 0.416
47 | ACGGGTACTTGGGTTCTAACCTGTTGCCT (site ACGGGTACTAG) | 1.51
48 | ACGGGTACTTGGGTTCTAACCTGTTGCCT (site ACTGGTACTAG) | 0.165
49 | ACGTAACCTTGGGTTCTAACCTGTTGCCT (site ACGTAACCTAG) | 0.0547
50 | ACGTAACCTTGGGTTCTAACCTGTTGCCT (site GTAACTACTGA) | 0.083
51 | ACGTATGCTTGGGTTCTAACCTGTTGCAT (site ACGTATGCTAT) | 0.556
52 | ACGTATGCTTGGGTTCTAACCTGTTGCAT (site TAAATCACTCG) | 0.0674
53 | ACGTCTCCTTGGGTTCTAACCTGTTGCTG (site ACGACTCCTCA) | 0
54 | ACGTCTCCTTGGGTTCTAACCTGTTGCTG (site ACGCCTCCTCA) | 0.175
55 | ACGTCTCCTTGGGTTCTAACCTGTTGCTG (site ACGGCTCCTCA) | 0.0879
56 | ACGTCTCCTTGGGTTCTAACCTGTTGCTG (site ACGTCTCCTCA) | 0.162
57 | ACGTGCTCTTGGGTTCTAACCTGTTGCCT (site AAGTGCTCTAG) | 0.503
58 | ACGTGCTCTTGGGTTCTAACCTGTTGCCT (site ACGTGCTCTAG) | 1.32
59 | ACGTGCTCTTGGGTTCTAACCTGTTGCCT (site AGGTGCTCTAG) | 0.119
60 | ACGTGCTCTTGGGTTCTAACCTGTTGCCT (site ATGTGCTCTAG) | 0.246
61 | ACGTGGCCTTGGGTTCTAACCTGTTGCCA (site ACGTGGCCTTG) | 0.0442
62 | ACGTGGCCTTGGGTTCTAACCTGTTGCCA (site ACGTGGTCTTA) | 0.275
63 | ACGTGGCCTTGGGTTCTAACCTGTTGCTG (site ACGTGGCCTCA) | 1.05

Row | Sequence | recombinant barcode read abundance (log10)
64 | ACGTGGCCTTGGGTTCTAACCTGTTGCTG (site ACTTGGCCTCA) | 0.618
65 | ACGTGGTCTTGGGTTCTAACCTGTTGCTA (site ACGTGGCCTTG) | 0.534
66 | ACGTGGTCTTGGGTTCTAACCTGTTGCTA (site ACGTGGTCTTA) | 0.582
67 | ACTAACACTTGGGTTCTAACCTGTTGCCT (site ACTAACACTAG) | 1.23
68 | ACTAACACTTGGGTTCTAACCTGTTGCCT (site CCTAACACTAG) | 0.0857
69 | ACTAACACTTGGGTTCTAACCTGTTGCCT (site GCTAACACTAG) | 0.0913
70 | ACTAACACTTGGGTTCTAACCTGTTGCCT (site TCTAACACTAG) | 0.546
71 | ACTAACCCTTGGGTTCTAACCTGTTGCCT (site AATAACCCTAG) | 0.0415
72 | ACTAACCCTTGGGTTCTAACCTGTTGCCT (site ACTAACCCTAG) | 1.47
73 | ACTAACCCTTGGGTTCTAACCTGTTGCCT (site AGTAACCCTAG) | 0.08
74 | ACTAACCCTTGGGTTCTAACCTGTTGCCT (site ATTAACCCTAG) | 0.074
75 | ACTAAGCCTTGGGTTCTAACCTGTTGCGG (site ACTAAGCCTCC) | 1.93
76 | ACTAAGCCTTGGGTTCTAACCTGTTGCGG (site AGTAAGCCTCT) | 0.151
77 | ACTACCTCTTGGGTTCTAACCTGTTGCCT (site AATACCTCTAG) | 0.0169
78 | ACTACCTCTTGGGTTCTAACCTGTTGCCT (site ACTACCTCTAG) | 1.35
79 | ACTACCTCTTGGGTTCTAACCTGTTGCCT (site AGTACCTCTAG) | 0.0737
80 | ACTACCTCTTGGGTTCTAACCTGTTGCCT (site ATTACCTCTAG) | 0.0805
81 | ACTACTACTTGGGTTCTAACCTGTTGCCT (site AATACTACTAG) | 0.227
82 | ACTACTACTTGGGTTCTAACCTGTTGCCT (site ACTACTACTAG) | 0.172
